# From patent publication EP4745134A1 (Jiangsu Yahong Meditech Co., Ltd., priority 2023, dated 2025)
# Target: PRMT5-MTA (Homo sapiens, UniProt O14744)
# Experiment: Enzymatic inhibitory activity against PRMT5-MTA (AlphaScreen)
# Type: biochemical
# Settings: not given
# Description: The AlphaScreen method was used to detect the enzymatic inhibitory activity of the compounds against PRMT5-MTA. 1 x Methyltransferase assay buffer IV (signalchem) was prepared as a solution for diluting each component for the enzymatic reaction. PRMT5/[…] protein of a final concentration of 1 nM, […] (sigma) of a final concentration of 1 uM and S-(5'-adenosine)-L-methionine chloride dihydrochloride (sigma) of a final concentration of 2.5 uM were mixed, then incubated for 30 minutes at room temperature, and transferred to an OptiPlate-384 well plate (PerkinElmer) at a volume of 6 uL per well, for which no PRMT5/[…] protein was added to the control wells. The test compound was 3-fold serially diluted into 10 concentrations, starting from a concentration of 1000 nM, and the series of diluted compounds were added to all wells except the control wells in the well plate using Tecan D300e. The well plate was subjected to centrifugation for 1 minute at 1000 rpm in a centrifuge, and then incubated for 15 minutes at 23°C. Histone H4 substrate of a final concentration of 5 nM was added to the well plate at 4 uL per well, centrifuged for 1 minute at 1000 rpm in a centrifuge, then placed in an incubator at 23°C and reacted for 45 minutes. Anti-histone H4 (symmetrical dimethyl R3) antibody (Abcam) was incubated with 50 ug/mL of AlphaScreen Protein A Acceptor beads (PerkinElmer) for 10 minutes at room temperature beforehand, and then added to the well plate at a volume of 10 uL per well. The mixture was reacted for 1 hour at room temperature. 50 Ug/mL of AlphaScreen Streptavidin Donor beads (PerkinElmer) was added at 10 uL per well, and reacted for 1 hour at room temperature. The signal values were detected for the well plate through the Alpha method using an Envision multifunctional microplate-reader, and the IC50 values for inhibition of the compounds on PRMT5/MET50 enzyme activity were calculated in Xlfit 5.0 software. Table 1. IC50 values for inhibition of the compounds on PRMT5+MTA enzyme activity
# PRMT5-MTA, sequence (O14744 whole entry): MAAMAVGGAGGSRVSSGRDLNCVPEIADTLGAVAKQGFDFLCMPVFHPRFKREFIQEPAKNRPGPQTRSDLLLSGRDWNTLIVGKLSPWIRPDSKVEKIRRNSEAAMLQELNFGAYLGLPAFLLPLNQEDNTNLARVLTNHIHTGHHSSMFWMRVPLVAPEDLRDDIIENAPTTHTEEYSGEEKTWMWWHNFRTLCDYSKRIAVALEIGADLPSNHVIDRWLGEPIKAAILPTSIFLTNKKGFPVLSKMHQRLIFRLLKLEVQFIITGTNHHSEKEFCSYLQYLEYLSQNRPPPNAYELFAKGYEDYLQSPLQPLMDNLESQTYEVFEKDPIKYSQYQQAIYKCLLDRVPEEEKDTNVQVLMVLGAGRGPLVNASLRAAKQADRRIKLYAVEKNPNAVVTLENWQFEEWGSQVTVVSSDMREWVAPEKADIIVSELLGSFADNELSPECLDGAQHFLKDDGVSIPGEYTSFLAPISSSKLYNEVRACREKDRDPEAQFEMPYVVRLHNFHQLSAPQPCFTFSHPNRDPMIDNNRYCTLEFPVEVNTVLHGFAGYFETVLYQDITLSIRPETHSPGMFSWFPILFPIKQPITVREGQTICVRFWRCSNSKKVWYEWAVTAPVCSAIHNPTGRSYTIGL
# PRMT5-MTA, sequence (Q9BQA1 whole entry partner): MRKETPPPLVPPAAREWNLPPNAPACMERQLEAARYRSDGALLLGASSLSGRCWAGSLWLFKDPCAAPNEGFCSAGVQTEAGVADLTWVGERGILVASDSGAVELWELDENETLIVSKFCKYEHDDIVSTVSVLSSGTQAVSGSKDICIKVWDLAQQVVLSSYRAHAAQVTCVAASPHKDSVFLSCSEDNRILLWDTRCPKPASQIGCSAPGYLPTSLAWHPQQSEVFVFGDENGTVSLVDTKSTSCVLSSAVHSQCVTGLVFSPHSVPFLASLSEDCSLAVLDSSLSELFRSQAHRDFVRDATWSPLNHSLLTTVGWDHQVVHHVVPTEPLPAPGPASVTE
row,SMILES,IC50
1,Cc1cc2nc(N)c3cnn(C)c3c2cc1C(=O)N(C)N1c2ccccc2CC1C (stereo not shown) [Example 280],4 nM

# Same assay, conditions: read-out: IC50
row,IC50,SMILES
1,8.4 nM,"CN(c1ncccn1)N(Cc1ccc(C(F)(F)F)cn1)C(=O)c1ccc2nc(N)c(C(F)(F)F)cc2c1 [Example 327, 2-amino-N'-methyl-N'-(pyrimidin-2-yl)-3-(trifluoromethyl)-N-((5-(trifluoromethyl)pyridin-2-yl)methyl)quinoline-6-carbohydrazide]"
2,3.3 nM,"Cc1cc2cc(C(=O)N(Cc3ccc(F)cn3)N(C)c3ncccn3)ccc2nc1N [Example 71, 2-amino-N-((5-fluoropyridin-2-yl)methyl)-N',3-dimethyl-N'-(pyrimidin-2-yl)quin oline-6-carbohydrazide]"
3,17.2 nM,"Cc1cc2cc(C(=O)N(Cc3ccc(C(F)(F)F)cn3)N(CC(F)(F)F)c3ncccn3)ccc2nc1N [Example 98, 2-amino-3-methyl-N'-(pyrimidin-2-yl)-N' -(2,2,2-trifluoroethyl)-N-((5-(trifluoromethyl)pyridin-2-yl)methyl)quinoline-6-carbohydrazide]"
4,3.7 nM,"Cc1cc2cc(C(=O)N(Cc3ccc(C(C)(C)O)cn3)N(C)c3ncccn3)ccc2nc1N [Example 290, 2-amino-N-((5-(2-hydroxyprop-2-yl)pyridin-2-yl)methyl)-N',3-dimethyl-N'-(pyrimidin-2-yl)quinoline-6-carbohydrazide]"
5,5.1 nM,"Cn1ncc2c(N)nc3cc(C4CC4)c(C(=O)N4CCCN4c4ccc(C(F)(F)F)cn4)cc3c21 [Example 497, (4-amino-7-cyclopropyl-1-methyl-1H-pyr azolo[4,3-c]quinolin-8-yl)(2-(5-(trifluoromethyl)pyridin-2-yl)pyrazolidin-1-yl)met hanone]"
6,8.6 nM,"Cc1cc2nc(N)c3c(cnn3C)c2cc1C(=O)N1CC(C)CN1c1ncccc1F (stereo not shown) [Example 504, (4-amino-3,7-dimethyl-3H-pyrazolo[3,4-c]quinolin-8-yl)(2-(3-fluoropyridin-2-yl)-4-methylpyrazolidin-1-yl)methanone]"
7,15.8 nM,"CN(c1ccc(C(F)(F)F)cn1)N(CC(F)(F)F)C(=O)c1ccc2nc(N)c3c(c2c1)COC3 [Example 54, 4-amino-N'-methyl-N-(2,2,2-trifluoroethyl)-N'-(5-(trifluoromethyl)pyridin-2-yl)-1,3-dihydrofuro[3,4-c]quinoline-8-carbohydrazide]"
8,8.6 nM,"Cc1cc2cc(C(=O)N(Cc3ccc(C4=CCNCC4)cn3)N(C)c3ncccn3)ccc2nc1N [Example 262, 2-amino-N',3-dimethyl-N'-(pyrimidin-2-yl)-N-((1',2',3',6'-tetrahydro-[3,4'-bipyridine]-6-yl)methyl)quinoline-6-carbohydrazide]"
9,5.2 nM,"CCn1ncc2c(N)nc3cc(C)c(C(=O)N4CC(C)CN4c4ncccc4F)cc3c21 (stereo not shown) [Example 503, (4-amino-1-ethyl-7-methyl-1H-pyrazolo[4,3-c]quinolin-8-yl)(2-(3-fluoropyridin-2-yl)-4-methylpyrazolidin-1-yl)methanone]"
10,7.5 nM,"Cc1cc2nc(N)c3cnn(C)c3c2cc1C(=O)N1C(C)CCN1c1ncccn1 (stereo not shown) [Example 373, (4-amino-1,7-dimethyl-1H-pyrazolo[4,3-c]quinolin-8-yl)(5-methyl-2-(pyrimidin-2-yl)pyrazolidin-1-yl)methanone]"
11,3.7 nM,"Cc1cc2nc(N)c3cnn(C)c3c2cc1C(=O)N1CC(O)CN1c1ncccc1F (stereo not shown) [Example 356, (4-amino-1,7-dimethyl-1H-pyrazolo[4,3-c]quinolin-8-yl)(2-(3-fluoropyridin-2-yl)-4-hydroxypyrazolidin-1-yl)methanone]"
12,3.1 nM,"Cc1cc2nc(N)c3cnn(C)c3c2cc1C(=O)N1CC(C)CN1c1cccc(F)c1F (stereo not shown) [Example 363, (4-amino-1,7-dimethyl-1H-pyrazolo[4,3-c]quinolin-8-yl)(2-(2,3-difluorophenyl)-4-methylpyrazolidin-1-yl)methanone]"
13,2 nM,"CN(c1ncccn1)N(Cc1ccc(C(F)(F)F)cn1)C(=O)c1cc2c(cc1F)nc(N)c1cnn(C)c12 [Example 14, 4-amino-7-fluoro-N',1-dimethyl-N'-(pyrimidin-2-yl)-N-((5-(trifluoromethyl)pyridin-2-yl)methyl)-1H-pyrazolo[4,3-c]quinoline-8-carbohydrazide]"
14,3.5 nM,"CN(C(=O)c1cc2c(cc1F)nc(N)c1cnn(C)c12)N(C)c1ncc(C(F)(F)F)cc1F [Example 37, 4-amino-7-fluoro-N'-(3-fluoro-5-(trifluor omethyl)pyridin-2-yl)-N,N',1-trimethyl-1 H-pyrazolo[4,3-c]quinoline-8-carbohydrazide]"
15,1.9 nM,"Cc1cc2cc(C(=O)N(Cc3ccc(C(F)(F)F)cn3)N(C)c3c(F)cccc3C(F)(F)F)ccc2nc1N [Example 44, 2-amino-N'-(2-fluoro-6-(trifluoromethyl)phenyl)-N',3-dimethyl-N-((5-(trifluoromethyl)pyridin-2-yl)methyl)quinoline-6-car bohydrazide]"
16,2.1 nM,"Cc1cc2nc(N)c3cnn(C)c3c2cc1C(=O)N1CCCN1c1nccc2nccnc12 [Example 331, (4-amino-1,7-dimethyl-1H-pyrazolo[4,3-c]quinolin-8-yl)(2-(pyrido[3,4-b]pyrazin-5-yl)pyrazolidin-1-yl)methanone]"
17,2 nM,"COCc1cc2cc(C(=O)N(Cc3ccc(C(F)(F)F)cn3)N(C)c3ncccn3)ccc2nc1N [Example 326, 2-amino-3-(methoxymethyl)-N'-methyl-N'-(pyrimidin-2-yl)-N-((5-(trifluoromethyl)pyridin-2-yl)methyl)quinoline-6-carbohydrazide]"
18,2.9 nM,"Cc1cc2cc(C(=O)N(Cc3ccc(C(F)(F)F)cn3)N(C)c3nccc4cnn(C)c34)ccc2nc1N [Example 275, 2-amino-N',3-dimethyl-N'-(1-methyl-1H-pyrazolo[3,4-c]pyridin-7-yl)-N-((5-(trifluoromethyl)pyridin-2-yl)methyl)quinoline-6-carbohydrazide]"
19,6.2 nM,"Cc1cc2nc(N)c3cnn(C)c3c2cc1C(=O)N1CC(C)CN1c1ncccc1C(F)(F)F (stereo not shown) [Example 399, (4-amino-1,7-dimethyl-1H-pyrazolo[4,3-c]quinolin-8-yl)(4-methyl-2-(3-(trifluoromethyl)pyridin-2-yl)pyrazolidin-1-yl)met hanone]"
20,3.7 nM,"COC1CN(C(=O)c2cc3c(cc2Cl)nc(N)c2cnn(C)c23)N(c2cc(F)ccc2F)C1 (stereo not shown) [Example 440, (4-amino-7-chloro-1-methyl-1H-pyrazolo [4,3-c]quinolin-8-yl)(2-(2,5-difluorophenyl)-4-methoxypyrazolidin-1-yl)methanone]"
21,3.8 nM,"Cc1cc2cc(C(=O)N(Cc3ccc(C(F)(F)F)cn3)N(C)c3cc(C(F)(F)F)ccn3)ccc2nc1N [Example 43, 2-amino-N',3-dimethyl-N'-(4-(trifluoromethyl)pyridin-2-yl)-N-((5-(trifluoromethyl)pyridin-2-yl)methyl)quinoline-6-carbohydrazide]"
22,6.1 nM,"CC1CN(C(=O)c2cc3c4c(c(N)nc3cn2)COC4)N(c2ncccc2F)C1 (stereo not shown) [Example 511, (4-amino-1,3-dihydrofuro[3,4-c][1,7]naphthyridin-8-yl)(2-(3-fluoropyridin-2-yl)-4-methylpyrazolidin-1-yl)methanone]"
23,3.6 nM,"Cc1cc2cc(C(=O)N(Cc3ccc(C(F)(F)F)cn3)N(C)c3ncccc3C(C)C)ccc2nc1N [Example 136, 2-amino-N'-(3-isopropylpyridin-2-yl)-N', 3-dimethyl-N-((5-(trifluoromethyl)pyridin-2-yl)methyl)quinoline-6-carbohydrazide]"
24,9.7 nM,"Cc1cc2cc(C(=O)N(Cc3ccc(C(F)(F)F)cn3)N(C)c3cccnn3)ccc2nc1N [Example 79, 2-amino-N',3-dimethyl-N'-(pyridazin-3-yl)-N-((5-(trifluoromethyl)pyridin-2-yl)methyl)quinoline-6-carbohydrazide]"
25,5.8 nM,"Cc1cc2nc(N)c3c(cnn3C)c2cc1C(=O)N(Cc1ccc(C(F)(F)F)cn1)N(C)c1ncccn1 [Example 81, 4-amino-N',3,7-trimethyl-N'-(pyrimidin-2-yl)-N-((5-(trifluoromethyl)pyridin-2-yl)methyl)-3H-pyrazolo[3,4-c]quinoline-8-carbohydrazide]"
26,4 nM,"Cc1cc2nc(N)c3cnn(C)c3c2cc1C(=O)N(Cc1ccc(C(F)(F)F)cn1)N(C)c1ncccn1 [Example 13, 4-amino-N',1,7-trimethyl-N'-(pyrimidin-2-yl)-N-((5-(trifluoromethyl)pyridin-2-yl)methyl)-1H-pyrazolo[4,3-c]quinoline-8-c arbohydrazide]"

row,SMILES,IC50
1,"Cc1cc2cc(C(=O)N(Cc3ccccn3)N(C)c3ncccn3)ccc2nc1N [Example 9, 2-amino-N',3-dimethyl-N-(pyridin-2-ylmethyl)-N'-(pyrimidin-2-yl)quinoline-6-carbohydrazide]",3.2 nM
